From ChEMBL document CHEMBL4507269, “Data for DCP probe BAY-386” (2021)

Experiments:
[1] = molecular target: Glutamate receptor ionotropic, kainate (Rattus norvegicus) (UniProt P22756+Q01812+P42260+P42264+Q63273); assay: Inhibition of Glutamate, Kainate at 10 µM in the Eurofins-Panlabs radioligand binding assay (Eurofins_assay_232700); details: Compound concentration 10.0 uM
[2] = molecular target: Neuropeptide Y receptor type 1 (Homo sapiens) (UniProt P25929); assay: Inhibition of Neuropeptide Y Y1 at 10 µM in the Eurofins-Panlabs radioligand binding assay (Eurofins_assay_257010); details: Compound concentration 10.0 uM
[3] = molecular target: D(3) dopamine receptor (Homo sapiens) (UniProt P35462); details: Compound concentration 10.0 uM
Platelet [4] = assay: Inhibition of platelet aggregation (human plasma, TRAP-6) (IC50); format: cell-based
[5] = molecular target: Beta-2 adrenergic receptor (Homo sapiens) (UniProt P07550); details: Compound concentration 10.0 uM
Mus musculus = species: Mus musculus; assay: Inhibition of Interleukin IL-1 at 10 µM in the Eurofins-Panlabs radioligand binding assay (Eurofins_assay_243520); design: ligand concentration 0.1 nM; details: Compound concentration 10.0 uM
[6] = molecular target: Acetylcholine receptor subunit alpha (Homo sapiens) (UniProt P02708); assay: Inhibition of Nicotinic Acetylcholine […], Bungarotoxin at 10 µM in the Eurofins-Panlabs radioligand binding assay (Eurofins_assay_258700); details: Compound concentration 10.0 uM
[7] = molecular target: Endothelin receptor type B (Homo sapiens) (UniProt P24530); details: Compound concentration 10.0 uM
[8] = molecular target: Voltage-dependent N-type calcium channel subunit alpha-1B (Homo sapiens) (UniProt Q00975); assay: Inhibition of Calcium Channel N-Type at 10 µM in the Eurofins-Panlabs radioligand binding assay (Eurofins_assay_216000); details: Rattus norvegicus; Compound concentration 10.0 uM
[9] = molecular target: Histamine H1 receptor (Homo sapiens) (UniProt P35367); details: Compound concentration 10.0 uM
[10] = molecular target: T1, Glutamate NMDA receptor (Rattus norvegicus) (UniProt P35439+Q00959+Q00960+Q00961+Q62645+Q8VHN2+Q9R1M7); details: Compound concentration 10.0 uM
[11] = molecular target: Sodium-dependent serotonin transporter (Homo sapiens) (UniProt P31645); details: Compound concentration 10.0 uM
[12] = molecular target: D(2) dopamine receptor (Homo sapiens) (UniProt P14416); details: Compound concentration 10.0 uM
[13] = molecular target: ATP-sensitive inward rectifier potassium channel 11 (Cricetulus griseus) (UniProt A0A3L7HHE1); assay: Inhibition of Potassium Channel [KATP] at 10 µM in the Eurofins-Panlabs radioligand binding assay (Eurofins_assay_265600); details: Cricetinae; Compound concentration 10.0 uM
[14] = molecular target: Cysteinyl leukotriene receptor 1 (Homo sapiens) (UniProt Q9Y271); assay: Inhibition of Leukotriene, Cysteinyl CysLT1 at 10 µM in the Eurofins-Panlabs radioligand binding assay (Eurofins_assay_250460); design: ligand concentration 0.3 nM, non-specific ligand with concentration 0.3 µM Leukotriene D4, incubation time 30 min, incubation temperature 25 °C; details: Compound concentration 10.0 uM
[15] = molecular target: T2, Muscarinic acetylcholine receptor M1 (Homo sapiens) (UniProt P11229); details: Compound concentration 10.0 uM
T2 sequence (whole entry): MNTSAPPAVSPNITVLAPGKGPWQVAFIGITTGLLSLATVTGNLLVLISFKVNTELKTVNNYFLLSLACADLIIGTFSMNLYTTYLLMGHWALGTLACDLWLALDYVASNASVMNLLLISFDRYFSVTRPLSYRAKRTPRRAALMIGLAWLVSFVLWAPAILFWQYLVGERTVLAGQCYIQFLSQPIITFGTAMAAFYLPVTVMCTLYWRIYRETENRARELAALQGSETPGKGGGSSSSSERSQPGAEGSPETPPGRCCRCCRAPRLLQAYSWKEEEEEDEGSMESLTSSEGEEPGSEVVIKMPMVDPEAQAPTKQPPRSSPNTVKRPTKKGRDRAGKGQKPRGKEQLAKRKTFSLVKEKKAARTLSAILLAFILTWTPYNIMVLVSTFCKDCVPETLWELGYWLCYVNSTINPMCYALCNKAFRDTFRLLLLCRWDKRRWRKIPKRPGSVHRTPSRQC

[16] = molecular target: Neuropeptide Y receptor type 2 (Homo sapiens) (UniProt P49146); assay: Inhibition of Neuropeptide Y Y2 at 10 µM in the Eurofins-Panlabs radioligand binding assay (Eurofins_assay_257110); details: Compound concentration 10.0 uM
[17] = molecular target: T3, D(4) dopamine receptor (Homo sapiens) (UniProt P21917); assay: Inhibition of Dopamine D4.2 at 10 µM in the Eurofins-Panlabs radioligand binding assay (Eurofins_assay_219900); design: ligand concentration 0.5 nM; details: Compound concentration 10.0 uM
T3 sequence (whole entry): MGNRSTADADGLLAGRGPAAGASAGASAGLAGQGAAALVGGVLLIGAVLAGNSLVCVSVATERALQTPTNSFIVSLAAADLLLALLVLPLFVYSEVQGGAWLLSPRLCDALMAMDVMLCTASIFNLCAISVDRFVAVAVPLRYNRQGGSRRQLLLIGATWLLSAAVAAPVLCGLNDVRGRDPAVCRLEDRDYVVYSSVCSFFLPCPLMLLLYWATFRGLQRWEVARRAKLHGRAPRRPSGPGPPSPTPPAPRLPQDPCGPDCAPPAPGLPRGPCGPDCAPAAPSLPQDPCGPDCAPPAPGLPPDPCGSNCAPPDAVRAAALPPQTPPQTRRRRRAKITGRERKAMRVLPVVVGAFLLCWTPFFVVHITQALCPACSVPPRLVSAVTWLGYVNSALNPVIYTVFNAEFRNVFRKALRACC

[18] = molecular target: T1, Glutamate NMDA receptor (Rattus norvegicus); details: Compound concentration 10.0 uM; remark: listed apart in the source
[19] = molecular target: GABA-A receptor; anion channel (Rattus norvegicus) (UniProt O09028+P15431+P18506+P18508+P19969+P20236+P23574+P23576+P28471+P28473+P30191+P62813+P63079+P63138+Q91ZM7+Q9ES14); details: Compound concentration 10.0 uM
[20] = molecular target: Kappa-type opioid receptor (Homo sapiens) (UniProt P41145); assay: kappa(KOP) (h) Eurofins-Cerep Cellular and Nuclear Receptor Functional Assays; details: Compound concentration 10.0 uM
Platelet [21] = assay: Inhibition of platelet aggregation (human plasma, TRAP-6) (IC90)
[22] = molecular target: Muscarinic acetylcholine receptor M3 (Homo sapiens) (UniProt P20309); details: Compound concentration 10.0 uM
Rattus norvegicus = species: Rattus norvegicus; details: Compound concentration 10.0 uM
[23] = molecular target: Beta-1 adrenergic receptor (Homo sapiens) (UniProt P08588); details: Compound concentration 10.0 uM
Platelet [24] = assay: Inhibition of platelet aggregation (human plasma, TRAP-6); format: cell-based
[25] = molecular target: Beta-3 adrenergic receptor (Homo sapiens) (UniProt P13945); details: Compound concentration 10.0 uM
[26] = molecular target: Mu-type opioid receptor (Homo sapiens) (UniProt P35372); assay: mu (MOP) (h) Eurofins-Cerep Cellular and Nuclear Receptor Functional Assays; details: Compound concentration 10.0 uM
Mu-type opioid receptor (Homo sapiens), sequence (P35372 whole entry): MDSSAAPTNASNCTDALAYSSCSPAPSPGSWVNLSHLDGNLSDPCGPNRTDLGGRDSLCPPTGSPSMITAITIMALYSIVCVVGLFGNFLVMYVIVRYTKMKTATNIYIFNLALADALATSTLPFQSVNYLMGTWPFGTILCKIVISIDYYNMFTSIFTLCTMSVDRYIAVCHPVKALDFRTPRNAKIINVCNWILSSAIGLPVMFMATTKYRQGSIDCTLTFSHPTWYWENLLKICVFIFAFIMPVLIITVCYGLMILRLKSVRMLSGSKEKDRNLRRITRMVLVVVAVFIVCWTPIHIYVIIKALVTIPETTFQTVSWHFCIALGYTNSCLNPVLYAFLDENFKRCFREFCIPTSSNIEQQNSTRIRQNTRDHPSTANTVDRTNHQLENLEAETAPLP

Kappa-type opioid receptor (Homo sapiens), sequence (P41145 whole entry): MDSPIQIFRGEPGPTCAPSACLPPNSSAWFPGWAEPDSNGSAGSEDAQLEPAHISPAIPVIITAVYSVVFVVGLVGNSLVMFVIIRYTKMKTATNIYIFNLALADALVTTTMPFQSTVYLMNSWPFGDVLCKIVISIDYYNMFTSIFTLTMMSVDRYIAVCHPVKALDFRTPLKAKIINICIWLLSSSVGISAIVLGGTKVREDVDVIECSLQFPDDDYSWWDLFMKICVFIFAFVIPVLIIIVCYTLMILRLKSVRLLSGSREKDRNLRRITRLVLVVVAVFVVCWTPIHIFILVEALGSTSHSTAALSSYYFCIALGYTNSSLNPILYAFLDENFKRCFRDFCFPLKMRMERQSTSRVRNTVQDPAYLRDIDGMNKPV
Histamine H1 receptor (Homo sapiens), sequence (P35367 whole entry): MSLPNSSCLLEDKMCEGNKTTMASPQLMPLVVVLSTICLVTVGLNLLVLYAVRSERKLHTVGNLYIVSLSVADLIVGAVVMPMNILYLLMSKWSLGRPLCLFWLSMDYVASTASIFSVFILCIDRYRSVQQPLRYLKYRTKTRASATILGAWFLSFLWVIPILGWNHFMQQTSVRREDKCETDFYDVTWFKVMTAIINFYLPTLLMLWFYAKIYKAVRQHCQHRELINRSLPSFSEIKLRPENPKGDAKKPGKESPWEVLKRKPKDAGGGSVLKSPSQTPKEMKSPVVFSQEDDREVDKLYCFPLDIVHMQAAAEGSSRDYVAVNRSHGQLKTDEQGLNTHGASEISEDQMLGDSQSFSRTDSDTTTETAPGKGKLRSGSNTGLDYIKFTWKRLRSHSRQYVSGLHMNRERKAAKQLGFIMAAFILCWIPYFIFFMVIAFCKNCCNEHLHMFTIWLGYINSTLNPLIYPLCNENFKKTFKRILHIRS
Neuropeptide Y receptor type 2 (Homo sapiens), sequence (P49146 whole entry): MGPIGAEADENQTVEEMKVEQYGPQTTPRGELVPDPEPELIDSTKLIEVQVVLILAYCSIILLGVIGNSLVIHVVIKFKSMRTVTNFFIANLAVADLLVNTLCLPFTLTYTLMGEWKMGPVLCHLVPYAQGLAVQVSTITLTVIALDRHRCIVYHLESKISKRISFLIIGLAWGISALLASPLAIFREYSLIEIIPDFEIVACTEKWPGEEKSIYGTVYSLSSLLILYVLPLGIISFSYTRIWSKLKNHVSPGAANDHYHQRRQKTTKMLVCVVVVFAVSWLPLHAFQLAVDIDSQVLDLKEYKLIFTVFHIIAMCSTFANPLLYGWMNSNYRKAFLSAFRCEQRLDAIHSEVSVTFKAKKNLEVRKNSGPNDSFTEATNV
Acetylcholine receptor subunit alpha (Homo sapiens), sequence (P02708 whole entry): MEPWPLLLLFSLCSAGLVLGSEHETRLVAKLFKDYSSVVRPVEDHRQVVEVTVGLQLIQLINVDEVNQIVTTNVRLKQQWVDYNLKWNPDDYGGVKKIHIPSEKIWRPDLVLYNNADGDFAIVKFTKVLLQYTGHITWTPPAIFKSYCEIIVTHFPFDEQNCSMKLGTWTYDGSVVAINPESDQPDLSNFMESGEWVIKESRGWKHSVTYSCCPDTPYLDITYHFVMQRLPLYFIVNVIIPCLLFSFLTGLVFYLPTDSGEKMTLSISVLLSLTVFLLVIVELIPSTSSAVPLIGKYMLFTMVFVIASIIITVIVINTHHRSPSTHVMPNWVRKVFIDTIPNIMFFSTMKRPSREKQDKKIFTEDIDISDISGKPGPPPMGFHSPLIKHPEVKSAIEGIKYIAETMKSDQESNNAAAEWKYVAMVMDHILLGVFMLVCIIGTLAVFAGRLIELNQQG
D(3) dopamine receptor (Homo sapiens), sequence (P35462 whole entry): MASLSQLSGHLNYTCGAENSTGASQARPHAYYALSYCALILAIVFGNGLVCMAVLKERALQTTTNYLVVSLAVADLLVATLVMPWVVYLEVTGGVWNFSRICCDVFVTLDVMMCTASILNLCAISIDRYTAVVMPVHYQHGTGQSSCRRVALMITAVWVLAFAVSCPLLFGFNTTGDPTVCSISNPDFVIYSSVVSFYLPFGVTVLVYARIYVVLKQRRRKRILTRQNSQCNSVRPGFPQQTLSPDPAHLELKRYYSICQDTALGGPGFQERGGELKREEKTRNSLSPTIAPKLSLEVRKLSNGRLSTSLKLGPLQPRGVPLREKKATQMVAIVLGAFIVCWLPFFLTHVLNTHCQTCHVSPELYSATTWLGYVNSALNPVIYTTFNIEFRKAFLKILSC
D(2) dopamine receptor (Homo sapiens), sequence (P14416 whole entry): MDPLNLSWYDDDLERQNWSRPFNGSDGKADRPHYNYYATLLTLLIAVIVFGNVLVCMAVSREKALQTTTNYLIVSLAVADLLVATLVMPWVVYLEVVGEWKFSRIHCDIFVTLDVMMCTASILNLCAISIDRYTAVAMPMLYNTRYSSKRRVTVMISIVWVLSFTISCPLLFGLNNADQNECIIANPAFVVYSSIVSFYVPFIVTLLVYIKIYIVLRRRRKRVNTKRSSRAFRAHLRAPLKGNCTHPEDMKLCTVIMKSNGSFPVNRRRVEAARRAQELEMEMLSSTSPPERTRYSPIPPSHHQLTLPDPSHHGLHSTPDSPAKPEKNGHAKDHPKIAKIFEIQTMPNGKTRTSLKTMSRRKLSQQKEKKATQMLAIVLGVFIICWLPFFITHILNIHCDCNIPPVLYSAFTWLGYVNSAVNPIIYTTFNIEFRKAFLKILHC
Cysteinyl leukotriene receptor 1 (Homo sapiens), sequence (Q9Y271 whole entry): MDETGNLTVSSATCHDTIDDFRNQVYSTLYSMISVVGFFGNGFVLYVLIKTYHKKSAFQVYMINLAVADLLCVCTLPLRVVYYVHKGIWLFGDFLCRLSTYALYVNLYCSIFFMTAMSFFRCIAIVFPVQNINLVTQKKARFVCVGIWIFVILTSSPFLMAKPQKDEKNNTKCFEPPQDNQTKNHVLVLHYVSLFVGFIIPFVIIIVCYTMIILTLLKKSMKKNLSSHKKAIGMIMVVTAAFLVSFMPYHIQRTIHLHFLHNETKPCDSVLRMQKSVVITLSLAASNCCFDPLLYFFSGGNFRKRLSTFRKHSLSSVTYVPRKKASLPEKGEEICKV
Beta-2 adrenergic receptor (Homo sapiens), sequence (P07550 whole entry, looked up): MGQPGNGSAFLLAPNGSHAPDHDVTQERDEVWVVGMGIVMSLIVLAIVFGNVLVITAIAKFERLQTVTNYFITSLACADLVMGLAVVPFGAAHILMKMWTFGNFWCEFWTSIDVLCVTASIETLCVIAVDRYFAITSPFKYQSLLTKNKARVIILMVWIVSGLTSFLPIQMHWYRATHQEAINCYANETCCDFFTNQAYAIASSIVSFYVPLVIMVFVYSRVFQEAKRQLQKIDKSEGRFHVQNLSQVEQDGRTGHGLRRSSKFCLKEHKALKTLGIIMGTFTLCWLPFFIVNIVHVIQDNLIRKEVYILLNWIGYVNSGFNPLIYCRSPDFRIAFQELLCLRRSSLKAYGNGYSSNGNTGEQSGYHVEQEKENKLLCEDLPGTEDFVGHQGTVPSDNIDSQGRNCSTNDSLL
ATP-sensitive inward rectifier potassium channel 11 (Cricetulus griseus), sequence (A0A3L7HHE1 as listed by the source): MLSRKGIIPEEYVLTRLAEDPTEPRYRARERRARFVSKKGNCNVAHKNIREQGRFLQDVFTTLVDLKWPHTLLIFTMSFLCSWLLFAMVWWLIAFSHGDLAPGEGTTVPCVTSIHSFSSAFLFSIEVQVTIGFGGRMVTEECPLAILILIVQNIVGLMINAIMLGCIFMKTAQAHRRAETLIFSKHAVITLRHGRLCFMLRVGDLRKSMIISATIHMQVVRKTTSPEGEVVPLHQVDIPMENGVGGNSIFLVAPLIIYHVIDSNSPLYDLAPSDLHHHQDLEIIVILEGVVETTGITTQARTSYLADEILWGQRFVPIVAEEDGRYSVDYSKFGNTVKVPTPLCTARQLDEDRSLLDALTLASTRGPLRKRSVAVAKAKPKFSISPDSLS
Beta-3 adrenergic receptor (Homo sapiens), sequence (P13945 whole entry, looked up): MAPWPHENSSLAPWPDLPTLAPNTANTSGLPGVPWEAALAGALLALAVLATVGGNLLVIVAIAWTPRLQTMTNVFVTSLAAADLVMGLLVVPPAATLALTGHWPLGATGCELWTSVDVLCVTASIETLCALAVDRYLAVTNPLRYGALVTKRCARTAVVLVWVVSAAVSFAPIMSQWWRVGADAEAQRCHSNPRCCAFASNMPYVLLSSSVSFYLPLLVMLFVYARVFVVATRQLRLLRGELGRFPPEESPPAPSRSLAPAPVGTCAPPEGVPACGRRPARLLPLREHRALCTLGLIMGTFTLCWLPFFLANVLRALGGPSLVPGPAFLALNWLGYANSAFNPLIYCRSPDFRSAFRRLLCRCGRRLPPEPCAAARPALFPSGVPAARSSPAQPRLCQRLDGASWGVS
Neuropeptide Y receptor type 1 (Homo sapiens), sequence (P25929 whole entry): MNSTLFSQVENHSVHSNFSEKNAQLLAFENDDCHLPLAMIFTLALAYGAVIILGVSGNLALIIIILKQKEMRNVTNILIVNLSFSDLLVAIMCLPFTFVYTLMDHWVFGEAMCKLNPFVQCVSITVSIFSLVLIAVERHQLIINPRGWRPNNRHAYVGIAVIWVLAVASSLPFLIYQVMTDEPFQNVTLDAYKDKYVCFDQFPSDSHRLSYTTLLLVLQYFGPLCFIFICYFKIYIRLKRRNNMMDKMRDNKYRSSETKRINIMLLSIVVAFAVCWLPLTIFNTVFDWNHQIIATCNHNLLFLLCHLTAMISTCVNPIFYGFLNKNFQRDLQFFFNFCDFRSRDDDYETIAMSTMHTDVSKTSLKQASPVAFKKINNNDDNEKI

Work on `O=C(N1CCS(=O)(=O)CC1)N1C[C@H](c2ccc(OC(F)(F)F)cc2)C[C@H](c2nc(C3CC3)no2)C1` [BAY-386] yielded an inhibition [1] of 15%, an inhibition [2] of 1% and an inhibition [3] of -1%. For the same compound, the IC50 (Platelet [4]) was 430 nM, the inhibition [5] was 0% and the inhibition (Mus musculus) was 16%. For the same compound, the inhibition [6] was -2%, the inhibition [7] was -4% and the inhibition [8] was 3%. It also gave an inhibition [9] of 0%, an inhibition [10] of -2% and an inhibition [11] of 3%. For the same compound, the inhibition [12] was 1%, the inhibition [13] was 4% and the inhibition [14] was 1%. The inhibition [15] was -3%, the inhibition [16] was 2% and the inhibition [17] was -9%. It also gave an inhibition [18] of 12%, an inhibition [19] of -3% and a % Inhibition of Control Agonist Response (Mean n=2) [20] of 4.5%. It also gave a % of Control Agonist Response (Mean n=2) [20] of 20.6%, an IC90 (Platelet [21]) of 680 nM and an inhibition [22] of -2%. It also gave an inhibition (Rattus norvegicus) of 14%.
In the case of `Cc1noc([C@H]2C[C@@H](c3ccc(C(F)(F)F)cc3)CN(C(=O)N3CCS(=O)(=O)C3)C2)n1` [BAY-448], the inhibition [23] is reported as 3.66%, the IC50 (Platelet [24]) is reported as > 10000 nM (not active) and the inhibition [25] is reported as 19.3%. For the same compound, the % Inhibition of Control Agonist Response (Mean n=2) [26] was -4.8% and the % of Control Agonist Response (Mean n=2) [26] was 36%.
